In general, IC50 refers to the concentration that gives 50% inhibition. Lower therefore signals inhibition by little substance.

“And” between values parts separate entries of the source, which are not always exact repeats. Identical values can stand only once. “Also recorded” adds a separate entry of the source.

Series [1] concerns T cells. The experiment in a line: Anti-phosphotyrosine immunoblot of T cell lysates, basal and anti-CD3 stimulated. In kind it is cell-based. The settings on record: 16 h, even at 50 μM BMLOV. On the procedure:
(§1) In the experiments shown in FIG. 25, human PHA-induced T cell blasts were treated overnight with the indicated concentrations of BMLOV. In Panel A, the baseline level of intracellular free Ca^2+ ([Ca^2+ ]i) was established for 1 min, and then the cells were treated with biotinylated anti-CD3 mAb (G19-4). After 5 min avidin was added (gap in the trace) to cross-link the antibody. In Panel B, assays were performed as in Panel A, but in the presence of 5 mM EGTA. […] In the experiments shown in FIG. 26, cells were treated 16 h with BMLOV and then stimulated with anti-CD3 mAb G19-4 for 5 min. Cells were then washed and resuspended in fresh media at equal concentrations of BMLOV at 37° C. Cells were then harvested and lysed at times following the initiation of CD3 stimulation as indicated. Antibody binding in immunoblots was detected by ECL.
On the technique in general: A western blot detects proteins with antibodies after separation by electrophoresis.

For series [2], the system named is HL-60. Kind of series: [3H]thymidine incorporation assay. The settings on record: for [3H]cpm incorporation: seven days. Format: cell-based, human. On the procedure: (§2) For each cell type, the cells were passaged uniformly for all drug doses given during the seven-day period. The cells were then pulsed for six hours with [^3 H]thymidine. The extent of DNA synthesis was then determined by counting the radioactivity incorporated into the cells.
(§3) For assays of cellular proliferation, cells were grown five days in the presence of the indicated concentrations of BMLOV, pulsed 6 hr with [^3 H]-thymidine (New England Nuclear, Boston, Mass.), and counted in a liquid scintillation counter. Human peripheral blood lymphocytes (PBL) from normal volunteers were isolated from lymphocyte separation medium (Litton Bionetics, Kensington, Md.) by density gradient centrifugation. Monocytes were depleted from PBL by two rounds of plastic absorption for 30 minutes at 37° C. B cells were enriched for by negative selection using complement plus monoclonal antibodies to CD2, CD3, CD4, and CD8 for complement depletion. Clonogenic assays of colony formation in methylcellulose medium were performed as previously described (F. M. Uckun et al. (1992), supra).
In general terms: Dividing cells build labelled thymidine or BrdU into new DNA.

The subject of series [3] is THP-1. Kind of series: [3H]thymidine incorporation assay. Format: cell-based, human. The settings on record: for [3H]cpm incorporation: seven days. On the procedure: as §2, §3
The subject of series [4] is Jurkat. The experiment in a line: [3H]thymidine incorporation assay. Format: cell-based, human. The conditions noted are these: for [3H]cpm incorporation: seven days. On the procedure: as §2, §3
The subject of series [5] is CEM. Kind of series: [3H]thymidine incorporation assay. Format: cell-based, human. The settings on record: for [3H]cpm incorporation: seven days. On the procedure:
as §2, §3

Series [6] relates to calf intestinal alkaline phosphatase. The experiment in a line: Alkaline phosphatase inhibition. In kind it is biochemical.
The test system of series [7] is PHA-induced T cell blasts. Kind of series: Ca2+ signaling in PHA T cell blasts. Format: cell-based, human. On the procedure:
(§4) Ca^2+ responses were measured using indo-1 (Molecular Probes, Eugene, Oreg.) and a model 50 HH/2150 flow cytometer (Ortho, Westwood, Mass.) as previously described (P. S. Rabinovitch et al., J. Immunol. 137:952-961 (1986)). The histograms were analyzed by programs (Cicero, Cytomation Inc., Ft. Collins, Colo.) that calculate the mean indo-1 violet/blue fluorescence ratio versus time. There are 100 data points on the X (time) axis for all flow cytometric data.
as §1

Series [8] has as its system T cell line CEM. Kind of series: Clonogenic assay in methylcellulose. In kind it is cell-based, human. The settings on record: dose as high as 100 μM BMLOV. On the procedure: The selective cytotoxicity of BMLOV was examined in clonogenic assays. Cells were grown in methylcellulose media and the number of colonies formed after seven days of treatment with various doses of the drug were determined. The clonogenic assays were performed with six replicates for each treatment as described [F. M. Uckun et al., J. Exp. Med. 163:347-368 (1986); F. M. Uckun & J. A. Ledbetter, Proc. Natl. Acad. Sci. USA 85:8603-8607 (1988)). The data is given plus/minus the standard error of the mean.

For series [9], the system named is Ramos B cells. Kind of series: Ca2+ signaling in Ramos B cells. Format: cell-based, human. On the procedure: as §4
In the experiments shown in FIG. 22, Ramos B cells were treated overnight with the indicated concentrations of BMLOV. The baseline level of intracellular free Ca^2+ ([Ca^2+ ]i) was established for 1 min, and then the cells were treated with anti-human IgM F(ab')2 (α-μ). The gap in the trace reflects the addition of α-μ. An acute Ca^2+ response to the addition of BMLOV to the Ramos cells was not observed, in contrast to the rapid elevation of Ca^2+ observed following treatment with pervanadate or H2 O2 (G. L. Schieven et al., Blood 82:1212-1220 (1993)); G. L. Schieven et al., J. Biol. Chem. 268:16688-16692 (1993)).

Series [10] has as its system Ramos B cells. The experiment in a line: Viability by propidium iodide staining and flow cytometry. Format: cell-based, human. The settings on record: 25 μM BMLOV, 4 days (FIG. 15B) or 5 d (FIG. 30). The source says:
The extent to which the T cells were being killed by BMLOV treatment relative to the Ramos B cells was therefore examined. […] The percentage of cells in each quadrant is indicated. The lower right quadrant contains the viable cells.

The subject of series [11] is i.p. implanted P388 murine leukemia. The experiment in a line: In vivo antitumor test, P388.
Series [12] concerns peripheral blood lymphocytes. The experiment in a line: Leukocyte counts in mice after pV(phen). The settings on record: one dose i.p.; for Absolute Counts: Eosinophil / Absolute Counts: Lymphocyte / Absolute Counts: Monocyte / Absolute Counts: Neutrophil: blood 24 hr later, individual animals. In kind it is in vivo, BALB/C mice. The text has this:
BALB/C mice received one dose of pV(phen) i.p. and their blood was examined 24 hr later.

For `Cc1occc(=O)c1[O-].Cc1occc(=O)c1[O-].[O]=[V+2]` [BMLOV, Bis(maltolato)oxovanadium (IV)], the “basal or T cell receptor induced cellular tyrosine phosphorylation” value in series [1] is recorded as “little effect on basal or T cell receptor induced cellular tyrosine phosphorylation”. For the same molecule, the “[3H]cpm incorporation” value in series [2] (1 μM BMLOV) was found to be 191637 cpm; in series [2] (5 μM BMLOV), 276505 cpm; in series [2] (10 μM BMLOV) it was 222178 cpm; in series [2] (25 μM BMLOV), 11398 cpm; in [3] (1 μM BMLOV) it was 201670 cpm; in [3] (5 μM BMLOV), 178290 cpm. Moreover, the “[3H]cpm incorporation” value is on record as 199993 cpm in [3] (10 μM BMLOV); 112209 cpm in series [3] (25 μM BMLOV); 149950 cpm in series [4] (1 μM BMLOV); 118720 cpm in series [4] (5 μM BMLOV); 98057 cpm in series [4] (10 μM BMLOV); 26511 cpm in [4] (25 μM BMLOV). The “[3H]cpm incorporation” value in series [5] (1 μM BMLOV) is listed as 368721 cpm; in series [5] (5 μM BMLOV), 403576 cpm; in [5] (10 μM BMLOV), 371256 cpm; in [5] (25 μM BMLOV), 313714 cpm. In addition, the “sensitivity of proliferation to BMLOV, in words” value in series [2] (25 μM, 5 or 7 days) is given as “moderately sensitive; also recorded: showed an inhibition of growth”; in [3] (25 μM, 5 or 7 days), “only partial sensitivity; also recorded: showed an inhibition of growth”; in series [4] (25 μM, 5 or 7 days), “moderately sensitive; also recorded: substantially inhibited”; in [5] (25 μM, 5 or 7 days) it was “resistant; also recorded: only small effects”. Further, in [6] (500 μM BMLOV), the “inhibition of calf intestinal alkaline phosphatase” value is listed as “less than 10%”. In addition, the IC50 in series [6] (Table 1, p-nitrophenyl phosphate substrate) was above 500 µM; in series [6] (Table 8) it was above 500 µM. Further, the “Ca2+ signals from crosslinking CD3 alone or with CD2 and CD4” value in series [7] (25-50 μM BMLOV) is on record as “prolong Ca^2+ signals”. Also, the basal calcium levels entry in series [7] (50 to 100 μM BMLOV, fifteen hours) is reported as “markedly enhance basal calcium levels”. Moreover, in series [7] (PHA T cell blasts), the “effect on CD28 Ca2+ signals” value is listed as “marked inhibition”. Also, in series [7] (anti-CD3 cross-linking, BMLOV overnight (25 μM elsewhere in the source)), the “Ca2+ signaling in T cells” value was “detectably stimulated Ca^2+ signaling; also recorded: increased and prolonged”. Besides, the “inhibition of clonogenic growth” value in [8] was “inhibited only moderately”. In addition, in series [9] (25 μM BMLOV, overnight), the “Ca2+ signals induced by cross-linking sIgM” value is recorded as “Complete inhibition”. Moreover, in series [9] (Ramos B cells), the “UV-induced Ca2+ signals” value is “greatly increased and prolonged UV-induced Ca^2+ signals”. Also, the “basal Ca2+ levels” value in series [9] (Ramos B cells, BMLOV 16 h) is given as “elevation of basal Ca^2+ levels”. In addition, in [10], the “killing by BMLOV, in words” value was “substantially more sensitive to killing; also recorded: completely killed”.
`[Na+].[O]=[V-]12([O][O]1)[O][O]2.c1cnc2c(c1)ccc1cccnc12` [pV(phen), sodium (1,10-phenanthroline) oxodiperoxovanadium (V)]: the “Max. % T/C” value in series [11] (Expt. 8457, 8 mg/kg/inj (MTD reached), d.1, ip, 8 mg/kg) was < 125% and 105%. For the same molecule, in series [11] (daily i.p. injections days 1 to 5, Expt. 8459), the “dose considered to be a MTD” value was 12 mg/kg per injection. In addition, the “excessively toxic, i.e. lethal, dose” value in series [11] (single i.p. doses, Expt. 8457) is recorded as “greater than or equal to 32 mg/kg”. Moreover, in series [12] (Dose 1 μM), the “Absolute Counts: Eosinophil” value was 244 and 26; the “Absolute Counts: Lymphocyte” value was 3848 and 1612; the “Absolute Counts: Monocyte” value is 488 and 104; the “Absolute Counts: Neutrophil” value is 1525 and 858. In series [12] (Dose 2 μM), the “Absolute Counts: Eosinophil” value is 78 and 81; the “Absolute Counts: Lymphocyte” value is 1560 and 2511; the “Absolute Counts: Monocyte” value was 390 and 0; the “Absolute Counts: Neutrophil” value was 1872 and 5508. In [12] (24 hr), the “effect on monocytes, in words” value was “no consistent effect was observed”; the “number of neutrophils, in words” value is “substantially increased”; the “number of peripheral blood lymphocytes, in words” value was “markedly reduced”.

Source of the values: patent US5877210A, “Phosphotyrosine phosphatase inhibitors or phosphotyrosine kinase activators for controlling cellular proliferation” (priority 1995, dated 1999).
